In ChEMBL document CHEMBL5360530, “Structure activity relationship (SAR) and anticancer activity of pyrrolidine derivatives: Recent developments and future prospects (A review)” (Eur J Med Chem, 2023):
Values after ≈ are worked out from the molar mass of the structure shown. Blank lines part the entries; values can stand above or below the molecule they belong to.

Columns and labels:
PC-3 = assay: Anticancer activity against human PC-3 cells assessed as cell death at 50 uM measured after 72 hrs by MTT assay relative to control; assay type: functional
K562 = assay: Anticancer activity against human K562 cells assessed as cell growth inhibition measured after 48 hrs by MTT assay; assay type: functional, cell-based; details: K562, 48 h
HT-29 [1] = assay: Anticancer activity against human HT-29 cells assessed as cell growth inhibition measured after 48 hrs by MTT assay; assay type: functional, cell-based; details: HT-29, 48 h
MCF7 [2] = assay: Anticancer activity against human MCF7 cells assessed as cell growth inhibition measured after 48 hrs by MTT assay; assay type: functional, cell-based; details: MCF7, 48 h
COS-7 = assay: Anticancer activity against COS-7 cells assessed as cell growth inhibition at 50 uM measured after 48 hrs by MTT assay relative to control; assay type: functional; details: Chlorocebus aethiops
MCF7 [3] = assay: Growth inhibition of human MCF7 cells assessed as cell growth inhibition by SRB assay; assay type: functional
A549 = assay: Anticancer activity against human A549 cells assessed as cell growth inhibition measured after 48 hrs by MTT assay; assay type: functional, cell-based; details: A549, 48 h
HCT-116 = assay: Anticancer activity against human HCT-116 cells assessed as cell growth inhibition measured after 24 hrs by SRB assay; assay type: functional, cell-based; details: HCT-116, 24 h
HT-29 [4] = assay: Anticancer activity against human HT-29 cells assessed as cell growth inhibition measured after 24 hrs by MTT assay; assay type: functional, cell-based; details: HT-29, 24 h
MCF7 [5] = assay: Anticancer activity against human MCF7 cells assessed as cell growth inhibition measured after 24 hrs by MTT assay; assay type: functional, cell-based; details: MCF7, 24 h
[6] = Cytotoxicity against human Chang liver cells assessed as cell growth inhibition measured after 24 hrs by DAPI and propidium iodide staining based assay; assay type: toxicity
MDA-MB-435 = assay: Anticancer activity against human MDA-MB-435 cells assessed as cell growth inhibition by SRB assay; assay type: functional, cell-based
MCF7 [7] = assay: Anticancer activity against human MCF7 cells assessed as cell growth inhibition by SRB assay; assay type: functional, cell-based
MCF7 [8] = assay: Anticancer activity against human MCF7 cells assessed as cell growth inhibition measured after 24 hrs by SRB assay; assay type: functional, cell-based; details: MCF7, 24 h
Mahlavu = assay: Anticancer activity against human Mahlavu cells assessed as cell growth inhibition measured after 24 hrs by SRB assay; assay type: functional, cell-based
Huh-7 = assay: Anticancer activity against human Huh-7 cells assessed as cell growth inhibition measured after 24 hrs by SRB assay; assay type: functional, cell-based; details: Huh-7, 24 h

IC50 (K562): 0.29 µM
IC50 (HT-29 [1]): 40.3 µM
IC50 (MCF7 [2]): 0.07 µM
SMILES: CCc1ccc(CCOc2ccc(CC3SC(=O)NC3=O)cc2)nc1 (stereo not drawn) [PIOGLITAZONE]

IC50 (K562): 0.39 µM
IC50 (HT-29 [1]): 0.39 µM
IC50 (MCF7 [2]): 0.39 µM
SMILES: O=C1CCC(=O)N1CC(=O)N1N=C(c2ccccc2)CC1c1ccc(F)cc1 (stereo not drawn)

IC50 (A549): 18.1 µM
IC50 (MCF7 [2]): 2.58 µM
SMILES: Cc1cc(=O)oc2cc(NC(=O)[C@@H]3CCCN3S(=O)(=O)c3ccccc3)ccc12

IC50 (K562): 61.9 µM
IC50 (HT-29 [1]): 0.39 µM
IC50 (MCF7 [2]): 0.78 µM
SMILES: O=C1CCC(=O)N1CC(=O)N1N=C(c2ccccc2)CC1c1ccc(Cl)c(Cl)c1 (stereo not drawn)

IC50 (HCT-116): 5.07 µM
SMILES: CC(=O)Oc1ccc(C(=O)/C=C2/C(=O)Nc3ccc(S(=O)(=O)N4CCOCC4)cc32)cc1

IC50 (HT-29 [4]): 254 µM
IC50 (MCF7 [5]): 293 µM
SMILES: O=C1c2ccccc2C(=O)N1/N=C/c1ccc(F)c(Br)c1

IC50 (MDA-MB-435): ≥ 3.6 µM
IC50 (MCF7 [7]): ≥ 53 µM
SMILES: N#CC1=C(N)OC2=C(c3ccccc3C2=O)C12C(=O)Nc1ccc(Cl)cc12 (stereo not drawn)

IC50 (HT-29 [4]): 278 µM
IC50 (MCF7 [5]): 293 µM
SMILES: COc1cc(/C=N/N2C(=O)c3ccccc3C2=O)cc(OC)c1O

IC50 (HT-29 [4]): 667 µM
IC50 (MCF7 [5]): 293 µM
SMILES: CC(C)(C)c1cc(/C=N/N2C(=O)c3ccccc3C2=O)c(O)c(C(C)(C)C)c1

IC50 (A549): 7.39 µM
IC50 (MCF7 [2]): 9.34 µM
SMILES: O=C(Nc1cc2ccccc2oc1=O)[C@@H]1CCCN1S(=O)(=O)c1ccccc1

IC50 (A549): 3.81 µM
IC50 (MCF7 [2]): 4.39 µM
SMILES: O=C(Nc1cc2ccccc2oc1=O)[C@@H]1CCCN1S(=O)(=O)c1ccc(Cl)cc1

IC50 (MDA-MB-435): ≥ 3.6 µM
IC50 (MCF7 [7]): ≥ 53 µM
SMILES: N#CC1=C(N)OC2=C(c3ccccc3C2=O)C12C(=O)Nc1ccc(I)cc12 (stereo not drawn)

GI50 (MCF7 [3]): < 10 mg/L
SMILES: O=C(/C=C/c1ccccc1)c1ccc(OCCN2CCCC2)cc1

IC50 (MDA-MB-435): ≥ 3.6 µM
IC50 (MCF7 [7]): ≥ 53 µM
SMILES: N#CC1=C(N)OC2=C(c3ccccc3C2=O)C12C(=O)Nc1ccc(Br)cc12 (stereo not drawn)

Second part, the molecule before the results:

SMILES: COC(=O)[C@H]1C[C@@H](C(=O)OC)C(c2ccccc2)(c2ccccc2)N1C(=O)Cn1cc(CCc2ccccc2)nn1
Activity (PC-3): 25%

SMILES: COC(=O)[C@H]1C[C@@H](C(=O)OC)C(c2ccccc2)(c2ccccc2)N1C(=O)Cn1cc(CC2CCCCC2)nn1
Activity (PC-3): 64%

SMILES: COc1ccc(C2NCCC23C(=O)Nc2ccccc23)cc1OC (stereo not drawn)
inhibition at 50 µM (COS-7): 0.51%

SMILES: O=C(/C=C/c1ccc(Cl)cc1Cl)c1ccc(OCCN2CCCC2)cc1
GI50 (MCF7 [3]): 24.7 mg/L (≈ 63.3 µM)

SMILES: CC/C(=C(\c1ccccc1)c1ccc(OCCN(C)C)cc1)c1ccccc1 [TAMOXIFEN]
IC50 at 24 h [6]: 46.2 µM
GI50 (MCF7 [3]): < 10 mg/L
IC50 (MCF7 [5]): 20.2 µM

SMILES: O=C(/C=C/c1ccco1)c1ccc(OCCN2CCCC2)cc1
GI50 (MCF7 [3]): > 80 mg/L

SMILES: COc1cc(OC)c(C2NCCC23C(=O)Nc2ccccc23)cc1OC (stereo not drawn)
inhibition at 50 µM (COS-7): 0.51%

SMILES: O=C(/C=C/c1c(Cl)cccc1Cl)c1ccc(OCCN2CCCC2)cc1
GI50 (MCF7 [3]): > 80 mg/L

SMILES: CC(C)C[C@@H]1N2[C@H](c3ccccc3)[C@H](c3ccccc3)OC(=O)[C@H]2[C@H](c2ccccc2)[C@@]12C(=O)Nc1ccccc12
IC50 (HCT-116): 3.9 µM
IC50 (MCF7 [8]): 4.8 µM
IC50 (Mahlavu): 14.9 µM
IC50 (Huh-7): 8.2 µM

SMILES: O=C(N[C@H]1C[C@@H](C(=O)NO)N(S(=O)(=O)c2ccc(Oc3ccccc3)cc2)C1)c1cc(Br)cnc1Cl
IC50 (A549): 5 µM

SMILES: O=C(/C=C/c1ccc(OCCN2CCCC2)cc1)c1ccc(Cl)cc1Cl
GI50 (MCF7 [3]): > 80 mg/L

SMILES: CC(=O)O[C@H]1C(=O)[C@@]2(C)[C@H]([C@H](OC(=O)c3ccccc3)[C@]3(O)C[C@H](OC(=O)[C@H](O)[C@@H](NC(=O)c4ccccc4)c4ccccc4)C(C)=C1C3(C)C)[C@]1(OC(C)=O)CO[C@@H]1C[C@@H]2O [PACLITAXEL]
IC50 (K562): 0.35 µM
IC50 (HT-29 [1]): 19.9 µM
IC50 (MCF7 [2]): 47.2 µM
